Measurements taken from patent US20240376076A1, “INHIBITORS TARGETING UBIQUITIN SPECIFIC PROTEASE 7 (USP7)” (Dana-Farber Cancer Institute, Inc., priority 2021, published 2024).

Experiments:
[1] = target: T1, USP7, Active human recombinant protein (Homo sapiens, UniProt Q93009); experiment: USP7 assay (Ubiquitin-Rhodamine 110 enzymatic assay); assay type: biochemical; conditions: read-out: IC50
T1 construct: purchased CP Lot; 20200225001
Procedure, shortened: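 Kinetic 20-min fluorescence read (485/535 nm) of ubiquitin-rhodamine 110 (190 nM final) cleavage by 0.05 nM USP7 gave slopes. Compounds, 10 concentrations in 3-fold steps, had 15 min RT preincubation with enzyme first. Inhibition relative to max (enzyme+substrate) and min (substrate only) signals, fitted to IC50.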

[2] = mouse liver microsomal stability (Microsome Assay Protocol); assay type: in vitro ADME; conditions: pH 7.4; mouse liver microsomes, NADPH, 37° C.; read-out: MLM t1/2, min
Procedure, shortened: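 Compound at 1.5 μM was mixed with 0.75 mg/mL mouse liver microsomes in 0.1 M potassium phosphate, 1.0 mM EDTA, pH 7.4, then started with NADPH from a 6 mM stock after 5 min preincubation at 37 °C. Samples taken at 0, 5, 15, 30 and 45 min were quenched with acetonitrile containing internal standard and analysed by LC/MS.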

[3] = plasma stability (Plasma Assay Protocol); assay type: in vitro ADME; conditions: 37° C., t1/2 extrapolated if >50% remaining at 60 min, ∞ if near 100% remaining
Experimental: ND refers to not disclosed.
• 1. Preheated 0.05 M sodium phosphate and 0.07 M NaCl buffer, pH 7.4. Dissolved 14.505 g/L Na2HPO4·12H2O, 1.483 g/L NaH2PO4·2H2O and 4.095 g/L NaCl in deionized water. The basic solution was then titrated with the phosphoric acid to pH 7.40. Stored in fridge up to 7 days. Checked pH on the day of experiment and adjust if outside specification of 7.4+/−0.1. • 2. Plasma preparation: • Thawed frozen plasma by placing at 37° C. quickly. Centrifuged plasma at 3,000 rpm for 8 minutes to remove clots, pipetted and pooled the supernatant as the plasma to be used in the experiment. Checked and recorded the pH of the plasma. Only used plasma within the range of pH 7.4 to pH 8. If higher than pH 8, discarded the plasma. By using a 5% CO2 incubator and PBS buffer, a pH of 7.4 was reached after the 4 hour equilibrium dialysis time. Put the plasma on ice until used. • 3. Tested compounds and reference compounds spiking solution: • 0.5 mM test compounds spiking solution A: Added 10 μL of 10 mM test compounds stock solution to 190 μL DMSO. • 0.02 mM spiking solution B: Added 40 μL of spiking solution A to 960 μL of […] Sodium phosphate buffer with 0.5% BSA.
Pre-warmed the plasma and spiking solution B at 37° C. for 5 min. Added 10 μL of pre-warmed spiking solution B into the wells designated for all the time points (5, 15, 30, 45, 60 min).
For 0-min, added 400 μL of acetonitrile (ACN) containing the internal standard (IS) to the wells of 0-min plate and then added 90 μL of plasma. Added 90 μL of pre-warmed plasma into the wells designated for the time points (0, 5, 15, 30, 45, 60 min), and started timing. At 5, 15, 30, 45, 60 min, added 400 μL of ACN containing IS to the wells of corresponding plates, respectively, to stop the reaction. After quenching, shook the plates at the vibrator (IKA, MTS 2/4) for 10 min (600 rpm/min) and then centrifuged at 5594 g for 15 min (Thermo Multifuge×3R). Transferred 50 μL of the supernatant from each well into a 96-well sample plate containing 50 μL of ultra pure water (Millipore ZMQS50F01) for LC/MS analysis.

T1 sequence (Q93009 whole entry): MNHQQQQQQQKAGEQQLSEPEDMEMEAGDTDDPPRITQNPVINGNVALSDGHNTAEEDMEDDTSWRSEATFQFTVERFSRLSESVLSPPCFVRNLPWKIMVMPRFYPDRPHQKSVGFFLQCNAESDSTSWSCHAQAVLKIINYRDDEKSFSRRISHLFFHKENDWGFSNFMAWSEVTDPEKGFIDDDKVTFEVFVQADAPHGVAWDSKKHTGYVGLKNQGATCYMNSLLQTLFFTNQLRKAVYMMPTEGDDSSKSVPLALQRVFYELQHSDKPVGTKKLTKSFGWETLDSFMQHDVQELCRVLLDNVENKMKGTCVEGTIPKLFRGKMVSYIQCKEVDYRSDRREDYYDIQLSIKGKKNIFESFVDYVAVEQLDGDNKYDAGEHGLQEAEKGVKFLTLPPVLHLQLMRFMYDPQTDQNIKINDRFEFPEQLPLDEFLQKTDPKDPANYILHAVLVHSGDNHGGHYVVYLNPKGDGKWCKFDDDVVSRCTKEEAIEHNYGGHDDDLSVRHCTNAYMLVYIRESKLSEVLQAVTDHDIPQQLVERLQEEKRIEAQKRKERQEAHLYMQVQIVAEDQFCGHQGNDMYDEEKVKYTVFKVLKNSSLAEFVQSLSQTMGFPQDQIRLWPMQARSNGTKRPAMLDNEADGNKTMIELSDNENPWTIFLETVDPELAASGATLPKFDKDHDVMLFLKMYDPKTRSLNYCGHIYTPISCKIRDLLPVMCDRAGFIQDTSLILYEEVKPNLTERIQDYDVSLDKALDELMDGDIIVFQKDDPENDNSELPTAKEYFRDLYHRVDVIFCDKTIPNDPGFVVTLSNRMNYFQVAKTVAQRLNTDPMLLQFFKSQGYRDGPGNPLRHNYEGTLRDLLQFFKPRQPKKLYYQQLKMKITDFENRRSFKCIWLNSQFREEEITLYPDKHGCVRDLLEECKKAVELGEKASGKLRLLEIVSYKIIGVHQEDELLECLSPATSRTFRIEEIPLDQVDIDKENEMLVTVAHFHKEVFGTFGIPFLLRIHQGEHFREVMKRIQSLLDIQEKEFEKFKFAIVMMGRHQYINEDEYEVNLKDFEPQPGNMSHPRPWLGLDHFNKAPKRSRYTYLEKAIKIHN

IC50 [1] [µM]	half-life at 1 µM [2] [min]	half-life at 2 µM [3] [min]	Plasma t1/2, min [3]	SMILES
< 0.02	24.3	178		CN(C)C1CCN(c2ccc3c(=O)n(CC4(O)CCN(C(=O)[C@H](CCCNC(=O)c5ccc6c(Cl)cc(C7CC7)nc6c5)Cc5ccccc5)CC4)cnc3c2)CC1 [Compound 123]
0.02 to 0.1	6.96		∞*	CN1CCC(OCCOc2ccc3c(=O)n(CC4(O)CCN(C(=O)[C@H](CCCNC(=O)c5ccc6c(Cl)cc(C7CC7)nc6c5)Cc5ccccc5)CC4)cnc3c2)CC1 [Compound 132]
